Reference: ChEMBL document CHEMBL1129209, “Molecular interactions of all possible regioisomers of synthetic myo-inositol phosphates with inositol 1,4,5-trisphosphate 3-kinase” (Bioorg Med Chem Lett, 1997)

Assay: Inhibition of Inositol 1,4,5-trisphosphate 3-kinase (IP3K) from rat brain

| Compound | IC50 [µM] |
| --- | --- |
| O=P(O)(O)O[C@H]1[C@H](O)[C@@H](OP(=O)(O)O)[C@H](OP(=O)(O)O)[C@@H](OP(=O)(O)O)[C@H]1O (stereo in doubt; form 3) | 220 |
| O=P(O)(O)O[C@H]1[C@H](O)[C@@H](OP(=O)(O)O)[C@H](OP(=O)(O)O)[C@@H](OP(=O)(O)O)[C@H]1O (stereo in doubt; form 2) | 56.7 |
| O=P(O)(O)O[C@H]1[C@H](O)[C@@H](OP(=O)(O)O)[C@H](OP(=O)(O)O)[C@@H](OP(=O)(O)O)[C@H]1O (stereo in doubt; form 4) | 65.2 |
| O=P(O)(O)O[C@@H]1[C@H](O)[C@H](O)[C@@H](OP(=O)(O)O)[C@H](OP(=O)(O)O)[C@H]1O (stereo in doubt; form 2) [INS(1,4,5)P3] | 12.4 |

Continued by falling IC50, values first:

| IC50 [µM] | Compound |
| --- | --- |
| 42.1 | O=P(O)(O)O[C@H]1[C@H](O)[C@@H](OP(=O)(O)O)[C@H](OP(=O)(O)O)[C@@H](OP(=O)(O)O)[C@H]1O (stereo in doubt; form 1) |
| 3.55 | O=P(O)(O)O[C@@H]1[C@H](O)[C@H](O)[C@@H](OP(=O)(O)O)[C@H](OP(=O)(O)O)[C@H]1O (stereo in doubt; form 1) [INS(1,4,5)P3] |
